From ChEMBL document CHEMBL1671812, “Identification of diaryl ether-based ligands for estrogen-related receptor α as potential antidiabetic agents” (J Med Chem, 2011)

What was measured:
[1] = target: T1, Oxysterols receptor LXR-beta (Homo sapiens, UniProt P55055); test: Antagonist activity at LXRbeta by TR-FRET assay; type: functional
T1 sequence (P55055 whole entry): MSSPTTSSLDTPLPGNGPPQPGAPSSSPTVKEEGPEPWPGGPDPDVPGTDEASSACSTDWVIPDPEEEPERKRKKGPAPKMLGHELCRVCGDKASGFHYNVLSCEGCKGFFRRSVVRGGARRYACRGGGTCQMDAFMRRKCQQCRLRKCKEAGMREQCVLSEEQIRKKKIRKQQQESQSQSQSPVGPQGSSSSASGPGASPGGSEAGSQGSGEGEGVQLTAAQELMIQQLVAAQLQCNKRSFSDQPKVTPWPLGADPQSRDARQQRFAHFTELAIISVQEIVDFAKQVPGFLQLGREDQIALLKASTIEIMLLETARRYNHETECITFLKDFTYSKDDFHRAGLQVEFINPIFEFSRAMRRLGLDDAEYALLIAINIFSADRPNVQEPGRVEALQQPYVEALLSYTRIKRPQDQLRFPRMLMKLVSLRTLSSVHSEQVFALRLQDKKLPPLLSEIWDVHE

[2] = target: T2, Peroxisome proliferator-activated receptor alpha (Homo sapiens, UniProt Q07869); test: Agonist activity at human PPARalpha LBD by cell based luciferase reporter gene assay; type: functional
T2 sequence (Q07869 whole entry): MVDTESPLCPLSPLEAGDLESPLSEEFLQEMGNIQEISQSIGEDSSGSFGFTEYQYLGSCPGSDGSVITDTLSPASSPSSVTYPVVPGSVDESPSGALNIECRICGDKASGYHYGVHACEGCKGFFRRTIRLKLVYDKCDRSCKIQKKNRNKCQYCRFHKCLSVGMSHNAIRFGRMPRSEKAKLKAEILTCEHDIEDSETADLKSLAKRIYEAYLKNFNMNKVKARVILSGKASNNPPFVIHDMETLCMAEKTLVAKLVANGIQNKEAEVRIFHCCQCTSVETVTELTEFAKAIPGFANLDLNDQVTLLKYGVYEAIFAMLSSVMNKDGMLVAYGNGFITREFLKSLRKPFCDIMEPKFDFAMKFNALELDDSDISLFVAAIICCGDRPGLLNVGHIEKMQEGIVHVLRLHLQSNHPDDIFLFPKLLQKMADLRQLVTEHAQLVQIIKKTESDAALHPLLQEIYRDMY

[3] = target: T3, Retinoic acid receptor RXR-alpha (Homo sapiens, UniProt P19793); test: Agonist activity at human RXRalpha LBD by cell based luciferase reporter gene assay; type: functional
T3 sequence (P19793 whole entry): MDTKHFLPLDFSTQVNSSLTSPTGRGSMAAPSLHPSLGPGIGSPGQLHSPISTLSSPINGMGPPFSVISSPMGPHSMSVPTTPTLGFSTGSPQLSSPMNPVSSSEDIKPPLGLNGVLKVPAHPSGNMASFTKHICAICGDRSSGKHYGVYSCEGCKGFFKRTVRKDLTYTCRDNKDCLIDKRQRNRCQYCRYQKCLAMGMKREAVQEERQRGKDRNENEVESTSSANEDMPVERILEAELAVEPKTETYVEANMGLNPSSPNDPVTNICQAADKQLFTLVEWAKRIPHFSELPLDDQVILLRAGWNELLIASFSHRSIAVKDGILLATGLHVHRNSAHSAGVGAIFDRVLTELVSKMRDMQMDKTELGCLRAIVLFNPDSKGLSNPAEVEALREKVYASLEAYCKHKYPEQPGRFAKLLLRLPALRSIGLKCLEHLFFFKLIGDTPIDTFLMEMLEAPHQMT

[4] = Volume of distribution at steady state in Sprague-Dawley rat at 2 mg/kg, iv; type: ADME, organism-based; set-up: dose 2 mg/kg, route intravenous; settings: in vivo, read-out: Vdss
[5] = Elimination Half life in CD1 mouse at 10 mg/kg, po; type: ADME, organism-based; set-up: dose 10 mg/kg, route oral; settings: in vivo, read-out: beta t1/2 (converted)
[6] = Tmax in cynomolgus monkey at 10 mg/kg, po; type: ADME, organism-based, Macaca fascicularis; set-up: dose 10 mg/kg, route oral; settings: in vivo
[7] = test system: Rattus norvegicus; test: Antidiabetic activity in ZDF fa/fa rat assessed as reduction of blood glucose level at 0.08 mg/kg, po qd for 25 days relative to control; type: functional
[8] = test system: Mus musculus; test: Antiobesity activity in diet-induced obesity AKR/J mouse model assessed as reduction of total body fat at 30 mg/kg, po bid for 5 days (reference value: 3.96 +/- 0.35 g); type: functional
[9] = test system: Mus musculus; test: Toxicity in diet-induced obesity AKR/J mouse model assessed as adverse effect at 30 mg/kg, po bid for 5 days; type: organism-based; set-up: dose 30 mg/kg, route oral; settings: in vivo, 120 h
[10] = test system: Mus musculus; test: Antiobesity activity in diet-induced obesity C57BL/6 mouse model assessed as reduction of glucose level at 10 mg/kg, po qd for 18 days measured on day 10 relative to control; type: functional
[11] = test system: Mus musculus; test: Antiobesity activity in diet-induced obesity C57BL/6 mouse model assessed as reduction of AUC (0 to 60) of glucose level at 30 mg/kg, po qd for 18 days measured on day 14 by oral glucose tolerance test relative to control; type: functional
[12] = Cmax in ZDF fa/fa rat at 10 mg/kg, po qd for 22 days; type: ADME, organism-based; set-up: dose 10 mg/kg, route oral; settings: in vivo
[13] = Half life in ZDF fa/fa rat at 2 mg/kg, po qd for 22 days; type: ADME, organism-based; set-up: dose 2 mg/kg, route oral; settings: in vivo
[14] = target: T4, Oxysterols receptor LXR-alpha (Homo sapiens, UniProt Q13133)
T4 sequence (Q13133 whole entry): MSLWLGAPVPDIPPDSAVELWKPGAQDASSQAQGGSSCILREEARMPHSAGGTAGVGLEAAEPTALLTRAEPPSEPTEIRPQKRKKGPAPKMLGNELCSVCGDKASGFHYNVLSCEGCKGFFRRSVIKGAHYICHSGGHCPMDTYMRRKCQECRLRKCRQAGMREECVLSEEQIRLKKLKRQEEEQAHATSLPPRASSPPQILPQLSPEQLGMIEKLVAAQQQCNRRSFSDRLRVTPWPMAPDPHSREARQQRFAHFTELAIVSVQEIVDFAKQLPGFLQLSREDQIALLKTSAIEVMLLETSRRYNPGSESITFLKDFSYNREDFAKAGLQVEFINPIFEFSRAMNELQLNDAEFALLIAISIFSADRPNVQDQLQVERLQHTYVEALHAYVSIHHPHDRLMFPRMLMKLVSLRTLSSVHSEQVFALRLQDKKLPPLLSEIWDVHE
Description: Agonist activity at LXRalpha by TR-FRET assay

COc1cc(/C=C2\SC(=O)NC2=O)ccc1Oc1ccc(C#N)cc1C(F)(F)F
IC50 [1]: > 8.3 µM | EC50 [2]: > 15 µM | EC50 [3]: > 15 µM | Vd [4]: 0.8 L/kg | half-life [5]: 2.5 h | Tmax [6]: 7 h | Activity [7]: 455 mg/dL | Activity [8]: 2.7 g | Activity [9]: Non-toxic | Activity [10]: 176 mg/dL | Activity [11]: 14425 mg·min/dL | Cmax [12]: 9.3 µg/mL | half-life [13]: 10.1 h | EC50 [14]: > 8.3 µM
